We go through 12 compounds from PubChem BioAssay (NCI).

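Grown in 96-well plates, cells were treated for 48 hours with each compound at five concentrations. Insufficient inhibition: endpoint recorded as highest concentration tested. GI50 is the concentration that inhibits growth by half. TGI marks complete inhibition of growth.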

Some test systems named below: NCI-H460 lung; OVCAR-8 ovarian; KM12 colon; UACC-257 melanoma; SK-MEL-5 melanoma; UO-31 renal; RXF 393 renal; NCI-H23 lung; NCI-H522 lung.
Common to all, as to test: NCI anticancer screen, dose series, 48 h

`CCCCCCCCCCCCCP(=O)(NCC(N)=O)OCC` (stereo unspecified): the TGI in the assay with NCI-H460 lung is 39.8 µM; in the assay with OVCAR-8 ovarian, 45.8 µM; in the assay with KM12 colon, 34 µM; with UACC-257 melanoma, 36.1 µM; in the assay with SK-MEL-5 melanoma, 35.3 µM; with UO-31 renal, 27.1 µM. Further, the figures for the TGI in the assay on RXF 393 renal and in the assay with NCI-H23 lung were 37.7 µM and 44 µM, respectively.
With `CN1CCc2c1nc(-c1cccnc1)c1c2N(C)CC1`, the TGI in the assay on NCI-H460 lung, with OVCAR-8 ovarian, in the assay on KM12 colon, in the assay on UACC-257 melanoma, with SK-MEL-5 melanoma and with UO-31 renal was > 100 µM each time. Further, the TGI with RXF 393 renal and in the assay with NCI-H23 lung was > 100 µM in each case.
As for `CCC1C(=O)OCc2c1cc1n(c2=O)C(CC)c2c-1nc1ccccc1c2Cl` (stereo unspecified), the TGI is 55.4 µM in the assay with NCI-H460 lung; 96.6 µM with KM12 colon; 92.6 µM with UACC-257 melanoma; 40.5 µM with SK-MEL-5 melanoma; > 100 µM with UO-31 renal; > 100 µM with NCI-H23 lung. In the assay with NCI-H522 lung, this compound displayed a TGI of 35 µM.
Take `N.N.N.N.N.O=S(=O)([O-])C(F)(F)F.O=S(=O)([O-])C(F)(F)F.[Os+8]`: the GI50 was 5.21 µM in the assay on NCI-H460 lung; 13.5 µM with OVCAR-8 ovarian; 13.7 µM in the assay on KM12 colon; 22.2 µM in the assay with UACC-257 melanoma; 15 µM with SK-MEL-5 melanoma; 12.8 µM with UO-31 renal. The GI50 with RXF 393 renal is 5.37 µM; with NCI-H23 lung, 5.07 µM. Moreover, the TGI in the assay with NCI-H460 lung was > 100 µM; with OVCAR-8 ovarian, 86.7 µM; in the assay with KM12 colon, 35 µM; in the assay on UACC-257 melanoma it was > 100 µM; in the assay with SK-MEL-5 melanoma, 34.1 µM; in the assay on UO-31 renal, 30.7 µM. Further, the results for the TGI in the assay on RXF 393 renal and with NCI-H23 lung were 18.7 µM and 19.1 µM, respectively.
Take `COC(=O)C#CCC1CCCC1C1SCCS1` (stereo unspecified): the TGI in the assay with OVCAR-8 ovarian, in the assay on KM12 colon, with UACC-257 melanoma, in the assay on SK-MEL-5 melanoma, in the assay with UO-31 renal and with RXF 393 renal was > 100 µM throughout. Besides, the TGI with NCI-H23 lung and in the assay on NCI-H522 lung was > 100 µM throughout.
In the case of `O=C(O)[C@@H](NS(=O)(=O)c1ccc2ccccc2c1)c1ccccc1`, the TGI in the assay on NCI-H460 lung, in the assay with UACC-257 melanoma, in the assay on UO-31 renal, with RXF 393 renal, in the assay on NCI-H23 lung and in the assay on NCI-H522 lung was > 100 µM each time.
`Cc1cc(C)nc(NS(=O)(=O)c2ccc(NC(=O)c3cccn4c(=O)c5ccccc5nc34)cc2)n1`: the TGI in the assay on NCI-H460 lung is > 100 µM; in the assay with OVCAR-8 ovarian it was 85.2 µM; in the assay on KM12 colon, > 100 µM; in the assay on SK-MEL-5 melanoma it was > 100 µM; in the assay on UO-31 renal, 74.7 µM; with RXF 393 renal it was 67.4 µM. For the same compound, the TGI was > 100 µM in the assay with NCI-H23 lung and 42.6 µM in the assay with NCI-H522 lung.
Turning to `Nc1ccc(C(=O)N/C(=C\c2cccc([N+](=O)[O-])c2)c2nc3ccc(Cl)cc3[nH]2)cc1`, the TGI with OVCAR-8 ovarian, in the assay on KM12 colon, in the assay with SK-MEL-5 melanoma, with UO-31 renal, in the assay on RXF 393 renal and in the assay with NCI-H23 lung was > 100 µM in each case. Moreover, the TGI in the assay with NCI-H522 lung was > 100 µM.
`Cc1nc2c(sc(=S)n2-c2ccccc2)c2nc3ccccc3n12`: the TGI in the assay on OVCAR-8 ovarian, with KM12 colon, in the assay on UACC-257 melanoma, in the assay with UO-31 renal, in the assay with RXF 393 renal and in the assay with NCI-H23 lung was > 100 µM each time. In the assay on NCI-H522 lung, the TGI was > 100 µM.
Take `NC(=O)C12CC3CC(CC(Br)(C3)C1)C2`: the TGI in the assay with NCI-H460 lung, in the assay on OVCAR-8 ovarian, in the assay on KM12 colon, with UACC-257 melanoma, in the assay on SK-MEL-5 melanoma and in the assay on UO-31 renal was > 100 µM each time. Also, the TGI in the assay on NCI-H23 lung and in the assay with NCI-H522 lung was > 100 µM throughout.
For the compound `Cc1ccc(NC(=O)CC2SC(N)=NC2=O)cc1C` (stereo unspecified), the TGI in the assay with NCI-H460 lung, with OVCAR-8 ovarian, with KM12 colon, with UACC-257 melanoma, with UO-31 renal and with NCI-H23 lung was > 100 µM throughout. The TGI in the assay with NCI-H522 lung is > 100 µM.
For the compound `COc1ccc(-c2ccc(/C=N/n3c(COc4ccccc4Cl)n[nH]c3=S)o2)c([N+](=O)[O-])c1`, the GI50 was 23.7 µM in the assay with NCI-H460 lung; 21.3 µM with OVCAR-8 ovarian; 20.9 µM in the assay on KM12 colon; 28.4 µM with UACC-257 melanoma; 31.7 µM in the assay on UO-31 renal; 15.5 µM with RXF 393 renal. Also, the GI50 in the assay on NCI-H23 lung is 18.5 µM; in the assay on NCI-H522 lung, 49 µM. Further, the TGI in the assay with NCI-H460 lung is 52.7 µM; with OVCAR-8 ovarian, 55.4 µM; with KM12 colon it was 49.5 µM; in the assay with UACC-257 melanoma it was 63.5 µM; in the assay on UO-31 renal, > 100 µM; in the assay with RXF 393 renal, 52.1 µM. For the same compound, the TGI in the assay with NCI-H23 lung was 41.8 µM; in the assay with NCI-H522 lung, > 100 µM.
